{
  "source": "patent US10507233B2",
  "about": "“Universal N-glycan binding reagent” (New England Biolabs, Inc., priority 2014, dated 2019)",
  "molecular_target": "T1, SNAP-Fbs: human Fbs sugar binding domain, wild type, SEQ ID NO: 2, fused to SNAP-tag (fusion SEQ ID NO: 3), on beads (Homo sapiens, UniProt Q9UK22)",
  "T1 construct": "SNAP-only beads as control",
  "T1 sequence (Q9UK22 113-296)": "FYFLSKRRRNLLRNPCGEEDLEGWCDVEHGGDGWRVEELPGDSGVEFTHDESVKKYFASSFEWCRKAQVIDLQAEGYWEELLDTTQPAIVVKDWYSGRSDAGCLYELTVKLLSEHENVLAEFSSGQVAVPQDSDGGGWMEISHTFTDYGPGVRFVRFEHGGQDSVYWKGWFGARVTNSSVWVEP",
  "assay": "Binding of 2-AB labeled M3N2 to SNAP-Fbs beads versus SNAP control beads",
  "conditions": "50 picomoles, low salt buffer, SNAP-Fbs beads vs SNAP control beads",
  "procedure": "SNAP-Fbs is efficiently conjugated to BG beads (SNAP Capture Pull-Down resin (New England Biolabs, Ipswich, Mass.): SNAP-Fbs protein is reacted with BG beads at 4° C. overnight in a DTT-containing buffer (4 mM DTT, 20 mM tris-HCl pH 7.5, 1 mM EDTA, 50 mM NaCl). After the conjugation reaction, SNAP-Fbs beads are washed with 40× bead volume of low salt buffer.\nWhen PNGase F is used to trim N-glycans away from the peptides or proteins, the terminal GlcNAc residue becomes available for modification. A common modification is fluorophore labeling using 2-AB dye. The primary amino group of the dye performs a nucleophilic attack on the carbonyl carbon of the acyclic reducing terminal residue to form a partially stable Schiff's base. […] The conserved terminal GlcNAc residue is thus referred to as the “reducing end” of a glycan species. Upon 2-AB labeling, the carbohydrate ring structure is no longer capable of forming. Fifty picomoles of 2-AB labeled M3N2 in low salt buffer were incubated with SNAP-Fbs beads or SNAP control beads (SNAP Capture beads conjugated to SNAP-tag Purified Protein, New England Biolabs, Ipswich, Mass.).",
  "data": [
    {"smiles": "CC(=O)N[C@H]1[C@H](O[C@@H]([C@H](O)[C@H](CNc2ccccc2C(N)=O)NC(C)=O)[C@H](O)CO)O[C@H](CO)[C@@H](O[C@@H]2O[C@H](CO[C@H]3O[C@H](CO)[C@@H](O)[C@H](O)[C@@H]3O)[C@@H](O)[C@H](O[C@H]3O[C@H](CO)[C@@H](O)[C@H](O)[C@@H]3O)[C@@H]2O)[C@@H]1O", "note": "[2-AB labeled M3N2]", "values": [
      {"measurement": "binding of 2-AB labeled M3N2", "value": "2-AB labeling disrupts the interaction between glycan and Fbs and completely abolishes binding"}
    ]}
  ]
}
